For 2 compounds, cytotoxicity results are on record in article PMC11481179, “Development and Application of Reversible and Irreversible Covalent Probes for Human and Mouse Cathepsin‐K Activity Detection, Revealing Nuclear Activity” (Advanced Science, 2024).

For the series, the system named is primary human osteoclasts (enriched monocytic cells). Briefly: Cell viability assay (methylene blue). To be noted: 48 h incubation. It is filed as cell-based. The protocol:
Figure 5 Labeling of endogenous cathepsin K in intact human osteoclast cells. Enriched human monocytes from PBMC were isolated from healthy donors’ blood, cells were treated with MCSF and RANKL or MCSF alone as indicated for 14 days. a–c) Osteoclasts were treated with vehicle (DMSO) or inhibitors ODN or GD30 [3 µM] in a culture medium for 2 h, followed by incubation with GD32 or GD42 for 8 h or GB123 for 2 h similar to as described in Figure 4. (a, b) Confocal fluorescent microscopy of GD32 and GB123 treated cells after fixation. c) Live cell imaging with GD42. d) SDS PAGE of the human osteoclasts and macrophages incubated with DMSO, ODN or GD30 [5 µM] followed by incubation with GD32 or GD42 [5 µM] for 8 h. e) The same gel was analyzed by western blot with an anti‐CTSK antibody. […] Red fluorescence marks cathepsin activity (ABPs) and blue fluorescence marks nucleus (DAPI). g–i) Cell viability assay. […] After 48 h incubation cells were fixed, and viability was measured by methylene blue. The data were expressed as a percentage of control; data represent the mean of two experiments with triplicates for each treatment (± Standard Deviation). […]
with 5µM GD32 for 24 h prior to the cell lysis. Cell lysates were prepared and analyzed as […]
analyzed as previously described. […]
After 48 h cells were fixed, and viability was measured by quantitative colorimetric assay using […]

`C#CCNC(=O)[C@H](CC(C)C)N[C@@H](c1ccc(-c2ccc(S(=O)(=O)CCNC(=O)OC(C)(C)C)cc2)cc1)C(F)(F)F` [GD30]: the cytotoxicity result is “No toxicity”.

Regarding `C#CCNC(=O)[C@H](CC(C)C)N[C@@H](c1ccc(-c2ccc(S(=O)(=O)CCNC(=O)CCCCC[N+]3=C(/C=C/C=C/C=C4/N(C)c5ccc(S(=O)(=O)O)cc5C4(C)C)C(C)(C)c4cc(S(=O)(=O)O)ccc43)cc2)cc1)C(F)(F)F` [GD32], the cytotoxicity result is on record as “No toxicity”.
